Ends that are not written are not given here.
Columns and labels:
in vivo = experiment: in vivo; set-up: species or system male Wistar/ST rats; settings: male, Wistar/ST, rat, 2 mg
Experimental: ANA-TA9 diluted in PBS was administered to the left nostril of male Wistar/ST rats (n = 3) at a dose of 2 mg (20 μL of 100 mg/mL). For the comparison, i.v. administration served as the control for i.n. administration. The same dose of ANA-TA9 ([…] of a 10 mg/mL PBS solution) was administered into the left femoral vein of 3 rats. CSF was collected 10 min after i.n. administration by cisternal puncture. An incision was made in the skin over the occipital bone, and the first layer of the muscle was cut. The sharp end of a 25-G needle connected to PE-50 tubing (1 m length) was carefully inserted into the cisterna magna. CSF was withdrawn into the tubing with a disposable syringe. Collection was terminated as soon as blood appeared in the tubing. CSF in the tubing was ejected into a ProteoSave SS 1.5 mL microtube (Sumitomo Bakelite Co., Ltd., Tokyo, Japan) and frozen at −40 °C. The CSF volumes ranged between 100 and 150 μL (n = 6). The plasma and brain concentrations of ANA-TA9 were determined by LC/MS, LC-20A, and LCMS-2020 (SHIMADZU, Kyoto, Japan). Briefly, 100 μL of the plasma were mixed with 1000 μL of methanol. […] To the dissected brain tissue, 100 μL of ice-cold purified water were added, and the mixture was homogenized under ice-cold conditions. To the homogenate, 4000 μL of ice-cold methanol were added. […] The residues were reconstituted with 100 μL of the mobile phase of the chromatography. In the preliminary study, it was confirmed that the effect of rapid degradation of ANA-TA9 on the assay could be excluded by the treatment on the blood and brain tissues mentioned above. Chromatographic separation was performed using a C18 analytical column (TSKgel ODS 100V, 3 μm, 2.0 mm × 100 mm; TOSOH, Tokyo, Japan). The mobile phase was acetonitrile/0.1% acetic acid (10/90), and the flow rate was 0.2 mL/min. ANA-TA9 eluting from the column was detected with mass spectrometry under the positive mode. Nitrogen gas was used for nebulization at a flow rate of 1.5 L/min. […] The calibration curves of ANA-TA9 in the plasma and the brain were determined.

[1] = Disposition and nasal absorption of ANA-TA9 in rats (plasma pharmacokinetics after i.v. bolus, i.v. infusion and i.n. administration); format: in vivo, Male Wistar/ST rats; settings: rat
Experimental: For i.n. administration, ANA-TA9 was dissolved in PBS at a concentration of 100 mg/mL. For intravenous (i.v.) administration, the nasal solution was diluted to 10 mg/mL with PBS. For i.v. infusion, ANA-TA9 was dissolved in PBS to a concentration of 12 mg/mL. The rats were anesthetized through i.p. administration of a mixture of medetomidine (0.15 mg/kg body weight), midazolam (2 mg/kg body weight), and butorphanol (2.5 mg/kg body weight). The right femoral artery was cannulated with polyethylene tubing. ANA-TA9 was injected into the left femoral vein of 3 rats at a dose of 2 mg (200 μL of a 10 mg/mL PBS solution). Those 3 rats nasally received the same dose of ANA-TA9 (20 μL of a 100 mg/mL PBS solution) under anesthesia. For nasal administration, a micropipette was used. After i.n. administration, the animals were kept conscious in a rat cage ([…], Tokyo, Japan) throughout the experiment after recovery from anesthesia. The PBS solution of ANA-TA9 (12 mg/mL) was infused intravenously for 10 min at a 25 μL/min flow rate. The infused dose was 3 mg/rat. At the appropriate time intervals after administration, blood samples were taken, heparinized, and immediately cooled down on ice, followed by centrifugation at 15,000 rpm for 5 min to obtain the plasma. The plasma samples were stored at -40 °C until the assay. In the preliminary study, it was confirmed that ANA-TA9 stored at -40 °C is stable for at least 2 weeks. The plasma and brain concentrations of ANA-TA9 were determined by LC/MS, LC-20A, and LCMS-2020 (SHIMADZU, Kyoto, Japan). Briefly, 100 μL of the plasma were mixed with 1000 μL of methanol. […] To the dissected brain tissue, 100 μL of ice-cold purified water were added, and the mixture was homogenized under ice-cold conditions. To the homogenate, 4000 μL of ice-cold methanol were added. […] The residues were reconstituted with 100 μL of the mobile phase of the chromatography. In the preliminary study, it was confirmed that the effect of rapid degradation of ANA-TA9 on the assay could be excluded by the treatment on the blood and brain tissues mentioned above. Chromatographic separation was performed using a C18 analytical column (TSKgel ODS 100V, 3 μm, 2.0 mm × 100 mm; TOSOH, Tokyo, Japan). The mobile phase was acetonitrile/0.1% acetic acid (10/90), and the flow rate was 0.2 mL/min. ANA-TA9 eluting from the column was detected with mass spectrometry under the positive mode. Nitrogen gas was used for nebulization at a flow rate of 1.5 L/min. Other conditions (temperature and voltage) were set as the default. The calibration curves of ANA-TA9 in the plasma and the brain were determined. […] The area under the plasma concentration-time profile (AUC) after i.v. and i.n. administration was obtained based on the linear trapezoidal rules. In the case of the i.n. application, the concentrations of the last three samples were extrapolated to estimate the area after the last sampling time. The dose was divided by the AUC to obtain the clearance. After normalization of the AUC with each dose, the bioavailability was calculated by the division of the normalized i.n. AUC by the normalized AUC after i.v. infusion.

[2] = male, Wistar/ST, in vivo, inhaled or intranasal, 2 mg
[3] = male, Wistar/ST, in vivo, iv, 2 mg
[4] = male, Wistar/ST, in vivo, iv, 3 mg/animal

level at 10 min (in vivo; inhaled or intranasal, CSF concentration 10 min after i.n. administration): 72 ± 6 ng/mL
level at 10 min (in vivo; inhaled or intranasal, plasma concentration 10 min after i.n. administration): 24 ± 5 ng/mL
level at 10 min (in vivo; iv, plasma concentration 10 min after i.v. administration): 10 ± 1 ng/mL
bioavailability ([1]; male, Wistar/ST, plasma, inhaled or intranasal, i.n. 2 mg, dose-normalized i.n. AUC divided by normalized AUC after i.v. infusion, mean ± S.E. of three experiments, read-out: F (bioavailability), i.n.): 36 ± 4.65%
Cmax [1, 2]: 863 ± 187 ng/mL
Tmax [1, 2]: 1 min
half-life [1, 3]: < 1 min
level at 0.5 min [1, 3]: 575 ± 26 ng/mL
level at 1 min [1, 3]: 111 ± 10 ng/mL
AUC [1, 4]: 215 ng·h/mL
clearance [1, 4]: 260 ± 13.8 mL/min
level at 0.25 h ([1]; male, Wistar/ST, in vivo, iv, 3 mg/rat): 172 ± 121 ng/mL
AUC, i.n. ([1]; i.n. 2 mg (20 μL of 100 mg/mL PBS solution), plasma, trapezoidal with extrapolation, mean ± S.E. of three experiments): 3.10 ± 0.782 µg·min/mL
plasma concentration at 20 min (after end of i.v. infusion) ([1]; in vivo, iv): below the limit of detection
Sequence: SKGQAYRMI [ANA-TA9]

— PMC8538057, “Direct Delivery of ANA-TA9, a Peptide Capable of Aβ Hydrolysis, to the Brain by Intranasal Administration” (Pharmaceutics, 2021)
